#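 Tested at 5 concentrations; 48 h exposure; 96-well plates; endpoints linearly interpolated, else capped at highest concentration. Here, GI50 denotes the concentration required for 50% inhibition of growth. TGI denotes the concentration required for complete inhibition of growth.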
# Tests used:
# Test in all cases: growth of human tumour cells (NCI), 48 h
# [1] = system: ACHN renal
# [2] = system: CCRF-CEM leukemia
# [3] = system: HS 578T breast
# [4] = system: DU-145 prostate
# [5] = system: MDA-MB-435
# [6] = system: OVCAR-4 ovarian
# [7] = system: OVCAR-5 ovarian
# [8] = system: SF-268 CNS
# [9] = system: UACC-257 melanoma
# [10] = system: HOP-92 NSCLC
# [11] = system: SN12C renal
# [12] = system: IGROV1 ovarian
# [13] = system: CAKI-1 renal
# [14] = system: MOLT-4 leukemia
# [15] = system: BT-549 breast
# [16] = system: U251 CNS
# [17] = system: SK-OV-3 ovarian
# [18] = system: A498 renal
# [19] = system: TK-10 renal
# [20] = system: NCI-H460 lung
# [21] = system: SNB-75 CNS
# [22] = system: A549 NSCLC
# [23] = system: HCC-2998 colon
# [24] = system: KM12 colon
# [25] = system: NCI/ADR-RES ovarian
# [26] = system: SW-620 colon
# [27] = system: OVCAR-8 ovarian
# [28] = system: MDA-MB-231 breast
# [29] = system: SF-295 CNS
# [30] = system: NCI-H226 lung
# [31] = system: SK-MEL-2 melanoma
# [32] = system: MCF7 breast
# [33] = system: SF-539 CNS
# [34] = system: HCT-15 colon
# [35] = system: RPMI-8226 leukemia
# [36] = system: EKVX NSCLC
# [37] = system: HCT-116 colon
# [38] = system: MALME-3M melanoma
# [39] = system: NCI-H522 lung
# [40] = system: HL-60(TB) leukemia
# [41] = system: K-562 leukemia
# [42] = system: HT29 colon
# [43] = system: OVCAR-3 ovarian
# [44] = system: PC-3 prostate
# [45] = system: M14 melanoma
# [46] = system: T-47D breast
# [47] = system: NCI-H23 lung
# [48] = system: UO-31 renal
# [49] = system: COLO 205 colon
# [50] = system: RXF 393 renal
# [51] = system: SK-MEL-5 melanoma
# [52] = system: SK-MEL-28 melanoma
# [53] = system: SNB-19 CNS
# [54] = system: LOX IMVI melanoma
# [55] = system: 786-0 renal
# [56] = system: HOP-62 NSCLC
smiles,measurement,setting,value
COc1cnccc1Nc1nc(-c2nn(Cc3c(F)cc(OCCO)cc3F)c3ccccc23)ncc1OC,GI50,[1],11.9 µM
same,TGI,[1],30.5 µM
same,GI50,[2],0.946 µM
same,TGI,[2],> 100 µM
same,GI50,[3],9.08 µM
same,TGI,[3],26.3 µM
same,GI50,[4],3.11 µM
same,TGI,[4],11.5 µM
same,GI50,[5],1.73 µM
same,TGI,[5],6.18 µM
same,GI50,[6],1.74 µM
same,TGI,[6],3.68 µM
same,GI50,[7],5.13 µM
same,TGI,[7],24.5 µM
same,GI50,[8],3.85 µM
same,TGI,[8],15.9 µM
same,GI50,[9],4.38 µM
same,TGI,[9],17 µM
same,GI50,[10],0.634 µM
same,TGI,[10],> 100 µM
same,GI50,[11],1.53 µM
same,TGI,[11],11.1 µM
same,GI50,[12],2.89 µM
same,TGI,[12],16.4 µM
same,GI50,[13],11.9 µM
same,TGI,[13],29.5 µM
same,GI50,[14],1.55 µM
same,TGI,[14],> 100 µM
same,GI50,[15],6.51 µM
same,TGI,[15],28.5 µM
same,GI50,[16],1.59 µM
same,TGI,[16],3.76 µM
same,GI50,[17],19.4 µM
same,TGI,[17],48 µM
same,GI50,[18],12.7 µM
same,TGI,[18],50.2 µM
same,GI50,[19],14.5 µM
same,TGI,[19],27.7 µM
same,GI50,[20],2.06 µM
same,TGI,[20],10.6 µM
same,GI50,[21],3.76 µM
same,TGI,[21],18.4 µM
same,GI50,[22],2.93 µM
same,TGI,[22],10.3 µM
same,GI50,[23],10 µM
same,TGI,[23],> 100 µM
same,GI50,[24],3.88 µM
same,TGI,[24],63.6 µM
same,GI50,[25],2.97 µM
same,TGI,[25],16.5 µM
same,GI50,[26],1.99 µM
same,TGI,[26],7.4 µM
same,GI50,[27],2.03 µM
same,TGI,[27],5.82 µM
same,GI50,[28],1.53 µM
same,TGI,[28],4.96 µM
same,GI50,[29],7.26 µM
same,TGI,[29],24.9 µM
same,GI50,[30],12.4 µM
same,TGI,[30],31.9 µM
same,GI50,[31],11 µM
same,TGI,[31],27 µM
same,GI50,[32],1.65 µM
same,TGI,[32],6.16 µM
same,GI50,[33],10.7 µM
same,TGI,[33],22.9 µM
same,GI50,[34],2.63 µM
same,TGI,[34],> 100 µM
same,GI50,[35],2.19 µM
same,TGI,[35],55.2 µM
same,GI50,[36],13.5 µM
same,TGI,[36],61.6 µM
same,GI50,[37],3.64 µM
same,TGI,[37],20.2 µM
same,GI50,[38],2.16 µM
same,TGI,[38],5.88 µM
same,GI50,[39],1.82 µM
same,TGI,[39],8.55 µM
same,GI50,[40],1.42 µM
same,TGI,[40],> 100 µM
same,GI50,[41],0.645 µM
same,TGI,[41],> 100 µM
same,GI50,[42],2.87 µM
same,TGI,[42],16.4 µM
same,GI50,[43],3.05 µM
same,TGI,[43],8.51 µM
same,GI50,[44],2.55 µM
same,TGI,[44],> 100 µM
same,GI50,[45],1.79 µM
same,TGI,[45],10 µM
same,GI50,[46],16.5 µM
same,TGI,[46],72.7 µM
same,GI50,[47],2.25 µM
same,TGI,[47],8.69 µM
same,GI50,[48],1.97 µM
same,TGI,[48],8.43 µM
same,GI50,[49],17.7 µM
same,TGI,[49],> 100 µM
same,GI50,[50],3.85 µM
same,TGI,[50],17.1 µM
same,GI50,[51],2.91 µM
same,TGI,[51],13 µM
same,GI50,[52],2.47 µM
same,TGI,[52],9.66 µM
same,GI50,[53],2.23 µM
same,TGI,[53],10.5 µM
same,GI50,[54],1.84 µM
same,TGI,[54],19.3 µM
same,GI50,[55],1.76 µM
same,TGI,[55],5.44 µM
same,GI50,[56],2.46 µM
same,TGI,[56],8.32 µM
